Patent US20230107642A1 (Erasca, Inc., priority 2020, published 2023)

Target: T1, Cys12 of the KRAS 4B G12C protein (Homo sapiens, UniProt P01116, G12C)
T1 construct: This protein contained 188 amino acids in total, including an N-terminal 6-Histidine tag; made in house; host or cells: E. coli BL21
Assay: In vitro covalent adduct formation (CAF) assay, LC-MS intact mass
Type: binding
Conditions: 10 μM compound, after 1 hour
Procedure, shortened: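 Percent covalent modification from intact-mass LC-MS, by relative free versus adducted protein (adducts within 1 Da of expected mass). Reaction: 10 μM compound with 5 μM E. coli-expressed, GDP-exchanged KRAS 4B G12C in TBS pH 7.4, 4% DMSO, 1 h at 22° C.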

| Compound | CAF (% after 1 hour) [%] |
| --- | --- |
| C=C(F)C(=O)N1[C@H](C)CN(c2nc(=O)n3c4c(c(-c5ccc(F)cc5)c(C(F)(F)F)cc24)SC[C@@H](OC)C3)C[C@@H]1C [Example 1222, (S)-8-((3S,5R)-4-(2-Fluoroacryloyl)-3,5-dimethylpiperazin-1-yl)-11-(4-fluorophenyl)-3-methoxy-10-(trifluoromethyl)-3,4-dihydro-2H,6H-[1,4]thiazepino[2,3,4-ij]quinazolin-6-one] | 59 |
| C=C(F)C(=O)N1CCN(c2nc(=O)n3c4c(c(-c5ccc(F)cc5)c(C(F)(F)F)cc24)SC[C@@H](OC)C3)CC1 [Example 1223, (S)-8-(4-(2-Fluoroacryloyl)piperazin-1-yl)-11-(4-fluorophenyl)-3-methoxy-10-(trifluoromethyl)-3,4-dihydro-2H,6H-[1,4]thiazepino[2,3,4-ij]quinazolin-6-one] | 57 |
| C=CC(=O)N1[C@H](C)CN(c2nc(=O)n3c4c(c(-c5ccc(F)cc5)c(C(F)(F)F)cc24)SC[C@@H](NS(C)(=O)=O)C3)C[C@@H]1C [Example 1224, N—((S)-8-((3S,5R)-4-Acryloyl-3,5-dimethylpiperazin-1-yl)-11-(4-fluorophenyl)-6-oxo-10-(trifluoromethyl)-3,4-dihydro-2H,6H-[1,4]thiazepino[2,3,4-ij]quinazolin-3-yl)methanesulfonamide] | 96 |
| C=CC(=O)N1[C@H](C)CN(c2nc(=O)n3c4c(c(-c5ncc(F)cc5F)c(C(F)(F)F)cc24)SC[C@@H](OC)C3)C[C@@H]1C [Example 1225, (3S)-8-((3S,5R)-4-Acryloyl-3,5-dimethylpiperazin-1-yl)-11-(3,5-difluoropyridin-2-yl)-3-methoxy-10-(trifluoromethyl)-3,4-dihydro-2H,6H-[1,4]thiazepino[2,3,4-ij]quinazolin-6-one] | 95 |
| C=CC(=O)N1[C@H](C)CN(c2nc(=O)n3c4c(c(-c5ccc(F)cc5C#N)c(C(F)(F)F)cc24)SC[C@@H](OC)C3)C[C@@H]1C [Example 1226, 2-((3S)-8-((3S,5R)-4-Acryloyl-3,5-dimethylpiperazin-1-yl)-3-methoxy-6-oxo-10-(trifluoromethyl)-3,4-dihydro-2H,6H-[1,4]thiazepino[2,3,4-ij]quinazolin-11-yl)-5-fluorobenzonitrile] | 81 |
| C=CC(=O)N1[C@H](C)CN(c2nc(=O)n3c4c(c(-c5ccc(F)cc5F)c(C(F)(F)F)cc24)SCCC3)C[C@@H]1C [Example 1227, 8-((3S,5R)-4-acryloyl-3,5-dimethylpiperazin-1-yl)-11-(2,4-difluorophenyl)-10-(trifluoromethyl)-3,4-dihydro-2H,6H-[1,4]thiazepino[2,3,4-ij]quinazolin-6-one] | 93 |
| [2H]C([2H])=C([2H])C(=O)N1[C@H](C)CN(c2nc(=O)n3c4c(c(-c5ccc(F)cc5)c(C(F)(F)F)cc24)SC[C@@H](OC)C3)C[C@@H]1C [Example 1228, (S)-8-((3S,5R)-4-(acryloyl-d3)-3,5-dimethylpiperazin-1-yl)-11-(4-fluorophenyl)-3-methoxy-10-(trifluoromethyl)-3,4-dihydro-2H,6H-[1,4]thiazepino[2,3,4-ij]quinazolin-6-one] | 96 |
| [2H]C([2H])([2H])O[C@@H]1CSc2c(-c3ccc(F)cc3)c(C(F)(F)F)cc3c(N4C[C@@H](C)N(C(=O)C=C)[C@@H](C)C4)nc(=O)n(c23)C1 [Example 1229, (S)-8-((3S,5R)-4-acryloyl-3,5-dimethylpiperazin-1-yl)-11-(4-fluorophenyl)-3-(methoxy-d3)-10-(trifluoromethyl)-3,4-dihydro-2H,6H-[1,4]thiazepino[2,3,4-ij]quinazolin-6-one] | 96 |
| C=CC(=O)N1[C@H](C)CN(c2nc(=O)n3c4c(c(-c5cc(Cl)c(F)cc5F)c(C(F)(F)F)cc24)SC[C@@H](Oc2cc(C)on2)C3)C[C@@H]1C [Example 1230, (3S,11R)-8-((3S,5R)-4-acryloyl-3,5-dimethylpiperazin-1-yl)-11-(5-chloro-2,4-difluorophenyl)-3-((5-methylisoxazol-3-yl)oxy)-10-(trifluoromethyl)-3,4-dihydro-2H,6H-[1,4]thiazepino[2,3,4-ij]quinazolin-6-one] | 94 |
| C=CC(=O)N1[C@H](C)CN(c2nc(=O)n3c4c(c(-c5cc(Cl)c(F)cc5F)c(C(F)(F)F)cc24)SC[C@@H](Oc2cc(C)on2)C3)C[C@@H]1C [Example 1231, (3S,11S)-8-((3S,5R)-4-acryloyl-3,5-dimethylpiperazin-1-yl)-11-(5-chloro-2,4-difluorophenyl)-3-((5-methylisoxazol-3-yl)oxy)-10-(trifluoromethyl)-3,4-dihydro-2H,6H-[1,4]thiazepino[2,3,4-ij]quinazolin-6-one] | 38 |
| C=CC(=O)N1[C@H](C)CN(c2nc(=O)n3c4c(c(-c5ccc(F)cc5)c(C(F)(F)F)cc24)SC[C@@H](OCC(=O)N(C)C)C3)C[C@@H]1C [Example 1232, 2-(((S)-8-((3S,5R)-4-acryloyl-3,5-dimethylpiperazin-1-yl)-11-(4-fluorophenyl)-6-oxo-10-(trifluoromethyl)-3,4-dihydro-2H,6H-[1,4]thiazepino[2,3,4-ij]quinazolin-3-yl)oxy)-N,N-dimethylacetamide] | 93 |
| C=CC(=O)N1[C@H](C)CN(c2nc(=O)n3c4c(c(-c5ccc(F)cc5)c(C(F)(F)F)cc24)SC[C@@H](OCC(N)=O)C3)C[C@@H]1C [Example 1233, 2-(((S)-8-((3S,5R)-4-acryloyl-3,5-dimethylpiperazin-1-yl)-11-(4-fluorophenyl)-6-oxo-10-(trifluoromethyl)-3,4-dihydro-2H,6H-[1,4]thiazepino[2,3,4-ij]quinazolin-3-yl)oxy)acetamide] | 95 |
| C=CC(=O)N1[C@H](C)CN(c2nc(=O)n3c4c(c(-c5cc(Cl)c(F)cc5F)c(C(F)(F)F)cc24)SC[C@@H](Oc2ccncc2)C3)C[C@@H]1C [Example 1234, (3S)-8-((3S,5R)-4-acryloyl-3,5-dimethylpiperazin-1-yl)-11-(5-chloro-2,4-difluorophenyl)-3-(pyridin-4-yloxy)-10-(trifluoromethyl)-3,4-dihydro-2H,6H-[1,4]thiazepino[2,3,4-ij]quinazolin-6-one] | 94 |
| C=CC(=O)N1[C@H](C)CN(c2nc(=O)n3c4c(c(-c5ccc(F)cc5C(N)=O)c(C(F)(F)F)cc24)SC[C@@H](OC)C3)C[C@@H]1C [Example 1235, 2-((3S)-8-((3S,5R)-4-acryloyl-3,5-dimethylpiperazin-1-yl)-3-methoxy-6-oxo-10-(trifluoromethyl)-3,4-dihydro-2H,6H-[1,4]thiazepino[2,3,4-ij]quinazolin-11-yl)-5-fluorobenzamide] | 69 |
| C=CC(=O)N1[C@H](C)CN(c2nc(=O)n3c4c(c(-c5cc(Cl)c(F)cc5F)c(C(F)(F)F)cc24)SC[C@@H](OCCN(CC)CC)C3)C[C@@H]1C [Example 1236, (3S)-8-((3S,5R)-4-acryloyl-3,5-dimethylpiperazin-1-yl)-11-(5-chloro-2,4-difluorophenyl)-3-(2-(diethylamino)ethoxy)-10-(trifluoromethyl)-3,4-dihydro-2H,6H-[1,4]thiazepino[2,3,4-ij]quinazolin-6-one] | 94 |
| C=CC(=O)N1[C@H](C)CN(c2nc(=O)n3c4c(c(-c5cc(Cl)c(F)cc5F)c(C(F)(F)F)cc24)SCC2(CC2)C3)C[C@@H]1C [Example 1237, 8′-((3S,5R)-4-acryloyl-3,5-dimethylpiperazin-1-yl)-11′-(5-chloro-2,4-difluorophenyl)-10′-(trifluoromethyl)-2′H,4′H,6′H-spiro[cyclopropane-1,3′-[1,4]thiazepino[2,3,4-ij]quinazolin]-6′-one] | 90 |
| C=CC(=O)N1[C@H](C)CN(c2nc(=O)n3c4c(c(-c5cc(Cl)c(F)cc5F)c(C(F)(F)F)cc24)SCC2(CCC2)C3)C[C@@H]1C [Example 1238, 8′-((3S,5R)-4-acryloyl-3,5-dimethylpiperazin-1-yl)-11′-(5-chloro-2,4-difluorophenyl)-10′-(trifluoromethyl)-2′H,4′H,6′H-spiro[cyclobutane-1,3′-[1,4]thiazepino[2,3,4-ij]quinazolin]-6′-one] | 95 |
| C=CC(=O)N1[C@H](C)CN(c2nc(=O)n3c4c(c(-c5cc(Br)c(F)cc5F)c(C(F)(F)F)cc24)SC[C@@H](OC)C3)C[C@@H]1C [Example 1239, (3S)-8-((3S,5R)-4-acryloyl-3,5-dimethylpiperazin-1-yl)-11-(5-bromo-2,4-difluorophenyl)-3-methoxy-10-(trifluoromethyl)-3,4-dihydro-2H,6H-[1,4]thiazepino[2,3,4-ij]quinazolin-6-one] | 95 |
| C=CC(=O)N1[C@H](C)CN(c2nc(=O)n3c4c(c(-c5cc(Cl)c(F)cc5F)c(C(F)(F)F)cc24)SC[C@@H](NCC(F)(F)F)C3)C[C@@H]1C [Example 1240, (3S)-8-((3S,5R)-4-acryloyl-3,5-dimethylpiperazin-1-yl)-11-(5-chloro-2,4-difluorophenyl)-3-((2,2,2-trifluoroethyl)amino)-10-(trifluoromethyl)-3,4-dihydro-2H,6H-[1,4]thiazepino[2,3,4-ij]quinazolin-6-one] | 91 |
| C=CC(=O)N1[C@H](C)CN(c2nc(=O)n3c4c(c(-c5cc(Cl)c(F)cc5F)c(C(F)(F)F)cc24)SCC2(CN(CC(F)(F)F)C2)C3)C[C@@H]1C [Example 1241, 8′-((3S,5R)-4-acryloyl-3,5-dimethylpiperazin-1-yl)-11′-(5-chloro-2,4-difluorophenyl)-1-(2,2,2-trifluoroethyl)-10′-(trifluoromethyl)-2′H,4′H,6′H-spiro[azetidine-3,3′-[1,4]thiazepino[2,3,4-ij]quinazolin]-6′-one] | 91 |
